Measurements published in paper PMC7643060, “Human perinatal stem cell derived extracellular matrix enables rapid maturation of hiPSC-CM structural and functional phenotypes” (Scientific Reports, 2020).

How the values were obtained:
[1] = system: hiPSC-CM syncytia; experiment: Proarrhythmia screen in 96 well plates using CiPA compounds (voltage sensitive dye, optical mapping); format: cell-based, human; conditions: hiPSC-CM syncytia on Matrix Plus, 10 × ETPC, 30 min exposure
Protocol: MatrixPlus coated 6 or 96 well plates were stored at 4 °C, transferred to room temperature on the day of cell plating and rehydrated (30 min) in Hank’s Balanced Salt Solution (HBSS). HBSS was aspirated and hiPSC-CMs were plated essentially as before[17],[22]. Briefly, commercially available iCell[2] Cardiomyocytes (Cellular Dynamics International) were thawed at 37 °C for 4 min, diluted in 7 ml of EB20 medium supplemented with blebbistatin (DMEM:F12, 20%FBS, 0.1% glutamine, 0.2%NEAA, 25 µM blebbistatin) and centrifuged (1000 rpm for 5 min) for removal of cryoprotectants. All work with human pluripotent stem cell derived cardiomyocytes was performed with approval from the University of Michigan Human Pluripotent Stem Cell Research Oversight committee (HPSCRO). All methods with human samples were handled following NIH guidelines. Cells from a single vial were diluted in EB20 with blebbistatin ([…]) and split evenly for plating on Matrigel, CELLvo Matrix and MatrixPLUS. Total amount of cells per functional syncytia varied depending on plate format, six well plates received 150,000 cells in the center of 1 cm diameter of matrix; and 96 well plates received 75,000 cells per well. Lower density plating (25,000 cells per well) was also used to more clearly observe cellular shape. hiPSC-CMs were maintained in cardiomyocyte EB20 supplemented with blebbistatin for 2 days before culture in RPMI supplemented with B27 for another 5 days[1].
(§1) Proarrhythmia screening assay was performed using voltage sensitive dye (VSD, FluoVolt) and high speed CCD camera (200fps)[24]. […] Supplemental Tables 1–3 outline each drug tested, the CiPA risk classification, the concentrations used and the clinical recorded Cmax for each drug to provide clinical reference for drug concentrations. Cells were then submitted to optical mapping for detection of voltage changes recorded with the CCD camera via selection of appropriate light wavelength (filter 515 nm, green light, Chroma). Movies were analyzed with custom made analysis software (Scroll) for determination of action potential duration and conduction velocity as described before[22],[24],[25].
Supplemental tables 1-3 outline each drug tested, the CiPA risk classification, the concentrations used and the clinical recorded Cmax for each drug to provide clinical reference for drug concentrations. hiPSC-CM monolayers were then submitted to optical mapping for detection of membrane voltage changes recorded with the CCD camera via selection of appropriate light wavelength (filter 515 nm, green light, Chroma). Movies were analyzed with custom made analysis software (Scroll) for determination of action potential duration and conduction velocity where appropriate.

[2] = system: hiPSC-CM monolayers; format: cell-based, human
Protocol: HBSS was aspirated and hiPSC-CMs were plated essentially as before[17],[22]. Briefly, commercially available iCell[2] Cardiomyocytes (Cellular Dynamics International) were thawed at 37 °C for 4 min, diluted in 7 ml of EB20 medium supplemented with blebbistatin (DMEM:F12, 20%FBS, 0.1% glutamine, 0.2%NEAA, 25 µM blebbistatin) and centrifuged (1000 rpm for 5 min) for removal of cryoprotectants. All work with human pluripotent stem cell derived cardiomyocytes was performed with approval from the University of Michigan Human Pluripotent Stem Cell Research Oversight committee (HPSCRO). All methods with human samples were handled following NIH guidelines. […]
as §1

Row | SMILES | Wells with arrhythmias [1] | Appearance of arrhythmias of TdP [2] | Change of beat rate or conduction velocity [2]
1 | CC(C)COCC(CN(Cc1ccccc1)c1ccccc1)N1CCCC1 (stereo not drawn) [bepridil] | did not yield arrhythmic responses |  | 
2 | CC(C)N(CCC(C(N)=O)(c1ccccc1)c1ccccn1)C(C)C (stereo not drawn) [disopyramide] | 66% |  | 
3 | CN(CCOc1ccc(NS(C)(=O)=O)cc1)CCc1ccc(NS(C)(=O)=O)cc1 [dofetilide] | 83% |  | 
4 | COc1ccccc1OCC(O)CN1CCN(CC(=O)Nc2c(C)cccc2C)CC1 (stereo not drawn) [ranolazine] | did not detect any arrhythmias | did not observe appearance of arrhythmias of TdP | did not significantly alter beat rate or conduction velocity
